In EP4617278A1, “NUCLEOTIDE ANALOG, AND COMPOSITION AND USE THEREOF” (priority 2022, dated 2024):

These molecules were tested on SARS-CoV-2 replicon. Settings: read-out: SARS-CoV-2 Replicon (Huh-7cell) EC50.
Format: cell-based

Question: Which EC50 does the source give for `CCC(CC)COC(=O)C1(N[P@@](=O)(OCOC(=O)OC(C)C)OC[C@H]2O[C@@](C#N)(c3ccc4c(N)ncnn34)[C@H](OC(=O)C(C)C)[C@@H]2OC(=O)C(C)C)CCC1` [Compound 32b, (2R,3R,4R,5R)-2-(4-aminopyrrolo[2,1-f][1,2,4]triazin-7-yl)-2-cyano-5-((((S)-((1-((2-ethylbutoxy)carbonyl)cyclobutyl)amino)(((isopropoxycarbonyl)oxy)methoxy)phosphoryl)oxy)methyl)tetrahydrofuran-3,4-diyl bis(2-methylpropionate)] here?
Answer: 10 to 50 nM

Question: Which EC50 does the source give for “(2R,3R,4R,5R)-2-(4-aminopyrrolo[2,1-f][1,2,4]triazin-7-yl)-2-cyano-5-((((R)-(((S)-1-isopropoxy-1-oxopropan-2-yl)amino)(((isopropoxycarbonyl)oxy)methoxy)phosphoryl)oxy)methyl)tetrahydrofuran-3,4-diyl diacetate [Compound 1a]” here?
Answer: 10 to 50 nM

Question: For `CC(C)OC(=O)OCO[P@](=O)(N[C@@H](C)C(=O)OC(C)C)OC[C@H]1O[C@@](C#N)(c2ccc3c(N)ncnn23)[C@H](OC(=O)C(C)(C)C)[C@@H]1OC(=O)C(C)(C)C` [Compound 4b, (2R,3R,4R,5R)-2-(4-aminopyrrolo[2,1-f][1,2,4]triazin-7-yl)-2-cyano-5-((((S)-(((S)-1-isopropoxy-1-oxopropan-2-yl)amino)(((isopropoxycarbonyl)oxy)methoxy)phosphoryl)oxy)methyl)tetrahydrofuran-3,4-diyl bis(2,2-dimethylpropionate)], which EC50 is on record?
Answer: 50 to 500 nM

Question: Which EC50 does the source give for `CCC(CC)COC(=O)[C@H](C)N[P@@](=O)(OCOC(=O)OC(C)C)OC[C@H]1O[C@@](C#N)(c2ccc3c(N)ncnn23)[C@H](OC(=O)C(C)C)[C@@H]1OC(=O)C(C)C` [Compound 7b, (2R,3R,4R,5R)-2-(4-aminopyrrolo[2,1-f][1,2,4]triazin-7-yl)-2-cyano-5-((((S)-(((S)-1-(2-ethylbutoxy)-1-oxopropan-2-yl)amino)(((isopropoxycarbonyl)oxy)methoxy)phosphoryl)oxy)methyl)tetrahydrofuran-3,4-diyl bis(2-methylpropionate)] here?
Answer: 10 to 50 nM

Question: How did the EC50 turn out when `CC(=O)O[C@H]1[C@@H](OC(C)=O)[C@](C#N)(c2ccc3c(N)ncnn23)O[C@@H]1CO[P@](=O)(OCOC(=O)OC(C)C)Oc1ccc(C(C)(C)C)cc1` [Compound 22a, (2R,3R,4R,5R)-2-(4-aminopyrrolo[2,1-f][1,2,4]triazin-7-yl)-5-((((S)-(4-tert-butylphenoxy)(((isopropoxycarbonyl)oxy)methoxy)phosphoryl)oxy)methyl)-2-cyanotetrahydrofuran-3,4-diyl diacetate] was run?
Answer: < 5 nM

Question: For `CC(C)C(=O)O[C@H]1[C@@H](OC(=O)C(C)C)[C@](C#N)(c2ccc3c(N)ncnn23)O[C@@H]1CO[P@](=O)(N[C@@H](CC(=O)OC1CCC1)C(=O)OC1CCC1)Oc1ccccc1` [Compound 54a, (2R,3R,4R,5R)-2-(4-aminopyrrolo[2,1-f][1,2,4]triazin-7-yl)-2-cyano-5-((((R)-(((S)-1,4-dicyclobutoxy-1,4-dioxobutan-2-yl)amino)(phenoxy)phosphoryl)oxy)methyl)tetrahydrofuran-3,4-diyl bis(2-methylpropionate)], which EC50 is on record?
Answer: 10 to 50 nM

Question: Which EC50 does the source give for `CCCCC/C=C\C/C=C\CCCCCCCCOC(=O)[C@H](C)N[P@](=O)(OCOC(=O)OC(C)C)OC[C@H]1O[C@@](C#N)(c2ccc3c(N)ncnn23)[C@H](OC(=O)C(C)C)[C@@H]1OC(=O)C(C)C` [Compound 52a, (2R,3R,4R,5R)-2-(4-aminopyrrolo[2,1-f][1,2,4]triazin-7-yl)-2-cyano-5-((((R)-(((isopropoxycarbonyl)oxy)methoxy)(((S)-1-(((9Z,12Z)-octadeca-9,12-dien-1-yl)oxy)-1-oxopropan-2-yl)amino)phosphoryl)oxy)methyl)tetrahydrofuran-3,4-diyl bis(2-methylpropionate)] here?
Answer: 50 to 500 nM
